These results are taken from US12667572B2, “Tricyclic compounds useful in the treatment of cancer, autoimmune and inflammatory disorders” (SCHRÖDINGER, INC., priority 2021, dated 2026).

Experiment [1] deals with IL10 secretion in OCI-LY10 cells. Kind of experiment: Human IL10 secretion assay, Assay 2 (MSD). The format is cell-based. Conditions: 24 h incubation, Meso Scale Discovery, read-out: IL-10 Secretion IC50 [nM] Assay 2. As to the method: IL10 is one of the cytokines that are regulated via activation of NF-kB signaling. For example, in ABC-DLBCL cell lines, the activated NF-kB signaling leads to increased IL10 secretion. Inhibition of NF-kB signaling has been shown leading to decreased IL10 secretion.
Assay 2: OCI-LY10 cells were seeded in IMEM supplemented with 20% fetal bovine serum at 4.8×10^5 cells per 160 μL per well in 96-well V-bottom cell culture plates (corning, 3894), treated with 120 nL of 3-fold serial compound dilutions, starting at 4 mM. The final vehicle concentration was 0.075% DMSO in all wells. After a 24 h incubation, human IL-10 precoated plates (Meso Scale Discovery) were washed 3 times with PBST, and 50 μL culture medium was aspirated into the MSD plate and incubated at 4° C. overnight. The supernatant was then discarded, and the wells were washed 3 times with PB ST. SULFO-TAG Anti-human IL-10 Antibody (50×) was diluted 50-fold according to the Meso Scale Protocol, then 25 μL of SULFO-TAG Anti-human IL-10 Antibody (1×) was added. After 2 h of incubation at RT, the supernatant was discarded, and the well was washed 3 times with PBST. 2×read buffer was added and the signal was read on an MSD Sector S600. The effect of a particular compound on IL10 secretion is shown relative to the effect of DMSO; set as 100%. IC50 values (nM) were determined using 4-parametric curve-fitting.

For experiment [2], the target named is T1, full-length MALT1 protein His-MALT1(1-824) (Homo sapiens, UniProt Q9UDY8).
T1 construct: full-length MALT1 protein His-MALT1(1-824); His (N); made in house; host or cells: baculovirus-infected insect cells
T1 sequence (Q9UDY8 1-824): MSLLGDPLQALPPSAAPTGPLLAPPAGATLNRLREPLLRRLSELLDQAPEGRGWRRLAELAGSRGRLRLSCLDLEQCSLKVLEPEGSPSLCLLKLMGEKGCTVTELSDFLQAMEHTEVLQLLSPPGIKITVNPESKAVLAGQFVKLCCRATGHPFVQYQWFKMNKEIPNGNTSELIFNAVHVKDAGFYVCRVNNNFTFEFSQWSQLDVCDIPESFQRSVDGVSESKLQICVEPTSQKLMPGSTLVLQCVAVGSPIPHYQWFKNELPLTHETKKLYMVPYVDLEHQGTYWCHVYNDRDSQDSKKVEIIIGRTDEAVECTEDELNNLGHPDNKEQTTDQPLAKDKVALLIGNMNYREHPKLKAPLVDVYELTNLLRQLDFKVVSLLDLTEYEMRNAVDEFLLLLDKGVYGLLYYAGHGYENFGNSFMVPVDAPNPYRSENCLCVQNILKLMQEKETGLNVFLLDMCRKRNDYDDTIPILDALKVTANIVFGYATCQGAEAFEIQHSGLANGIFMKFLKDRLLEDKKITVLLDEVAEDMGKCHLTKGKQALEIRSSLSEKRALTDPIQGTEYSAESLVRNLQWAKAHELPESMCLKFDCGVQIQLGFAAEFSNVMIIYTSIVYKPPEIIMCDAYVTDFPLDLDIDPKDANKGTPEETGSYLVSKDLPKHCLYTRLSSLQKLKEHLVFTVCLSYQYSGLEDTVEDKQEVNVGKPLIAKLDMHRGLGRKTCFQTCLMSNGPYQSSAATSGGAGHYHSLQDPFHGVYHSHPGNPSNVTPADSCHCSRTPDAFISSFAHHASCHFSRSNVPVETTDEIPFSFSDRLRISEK
Kind of experiment: MALT1 protease assay, Assay 2 (1 nM MALT1, Ac-LRSR-AMC substrate). Type of experiment: biochemical. To be noted: 1 nM MALT1, 50 μM Ac-LRSR-AMC, 2 h pre-incubation, 8 hr incubation at RT. The gist of the method: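 Compounds (0.1% DMSO final) sat 2 h at RT with insect-cell-expressed His-MALT1(1-824), in 50 mM Tris pH 7.5, 600 mM sodium citrate, 1 mM DTT, 1 mM EDTA, 0.05% BSA. Cleavage of 50 μM Ac-LRSR-AMC (Km ~100 μM) ran 8 h at RT, read as AMC fluorescence. IC50 and Hill coefficient fitted to % remaining activity.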

Read-outs that look alike come from different tables or passages of the source.

Usually IC50 stands for the concentration that inhibits the measured activity by half. For `O=C(Nc1cnc(-n2nccn2)c(Cl)c1)C1CC2(CC2)c2c1cnc1cc(Cl)nn21` (single isomer, unassigned) [Example 97, 2-chloro-N-(5-chloro-6-(2H-1,2,3-triazol-2-yl)pyridin-3-yl)-6,7-dihydrospiro[cyclopenta[e]pyrazolo[1,5-a]pyrimidine-8,1′-cyclopropane]-6-carboxamide], the IC50 lay within 100 to 1000 nM in experiment [1] (Homo sapiens) and 10 to 100 nM in experiment [2].

For `CC1(C)CC(C(=O)Nc2cnc(OC(F)F)c(C#N)c2)c2cnc3cc(Cl)nn3c21` (single isomer, unassigned) [Example 79, 2-chloro-N-(5-cyano-6-(difluoromethoxy)pyridin-3-yl)-8,8-dimethyl-7,8-dihydro-6H-cyclopenta[e]pyrazolo[1,5-a]pyrimidine-6-carboxamide], the IC50 is 10 to 100 nM in experiment [1] (Homo sapiens) and less than 10 nM in experiment [2].

Turning to `CC1(C)CC(C(=O)Nc2cnc(-c3nnn(CCO)n3)c(Cl)c2)c2cnc3cc(Cl)nn3c21` (stereo not shown) [Example 123, 2-chloro-N-(5-chloro-6-(2-(2-hydroxyethyl)-2H-tetrazol-5-yl)pyridin-3-yl)-8,8-dimethyl-7,8-dihydro-6H-cyclopenta[e]pyrazolo[1,5-a]pyrimidine-6-carboxamide], the figures for the IC50 in experiment [1] (Homo sapiens) and in experiment [2] were no less than 1000 nM and 10 to 100 nM, respectively.

`Cc1cn2ncc3c(c2n1)C(C)(C)CC3C(=O)Nc1cnc(-n2nccn2)c(Cl)c1` (single isomer, unassigned) [Example 189, N-(5-chloro-6-(2H-1,2,3-triazol-2-yl)pyridin-3-yl)-2,9,9-trimethyl-8,9-dihydro-7H-cyclopenta[d]imidazo[1,2-b]pyridazine-7-carboxamide]: the IC50 in experiment [1] (Homo sapiens) was 100 to 1000 nM; in experiment [2], less than 10 nM.

Take `CC1(C)CC(C(=O)Nc2cnc(-n3nccn3)c(C(F)(F)F)c2)c2cnc3cc(F)nn3c21` (single isomer, unassigned) [Example 151, N-(6-(2H-1,2,3-triazol-2-yl)-5-(trifluoromethyl)pyridin-3-yl)-2-fluoro-8,8-dimethyl-7,8-dihydro-6H-cyclopenta[e]pyrazolo[1,5-a]pyrimidine-6-carboxamide]: the IC50 in experiment [1] (Homo sapiens) is 10 to 100 nM; in experiment [2], less than 10 nM.

Turning to `O=C(Nc1cnc(-n2nccn2)c(Cl)c1)C1CC2(CC2)c2c1cnc1cc(F)nn21` (single isomer, unassigned) [Example 95, N-(5-chloro-6-(2H-1,2,3-triazol-2-yl)pyridin-3-yl)-2-fluoro-6,7-dihydrospiro[cyclopenta[e]pyrazolo[1,5-a]pyrimidine-8,1′-cyclopropane]-6-carboxamide], the IC50 in experiment [1] (Homo sapiens) was 100 to 1000 nM; in experiment [2], 10 to 100 nM.

With `C[C@@H](O)c1cnn(-c2ncc(NC(=O)[C@H]3CC4(CCC4)c4c3cnc3cc(Cl)nn43)cc2Cl)n1` (single isomer, unassigned) [Example 160], the IC50 in experiment [1] (Homo sapiens) was 10 to 100 nM; in experiment [2], less than 10 nM.

For `CC1(C)CC(C(=O)Nc2cnc(-n3nccn3)c(C#N)c2)c2cnc3cc(Cl)nn3c21` (single isomer, unassigned) [Example 107, 2-chloro-N-(5-cyano-6-(2H-1,2,3-triazol-2-yl)pyridin-3-yl)-8,8-dimethyl-7,8-dihydro-6H-cyclopenta[e]pyrazolo[1,5-a]pyrimidine-6-carboxamide], the IC50 in experiment [1] (Homo sapiens) is 10 to 100 nM; in experiment [2], less than 10 nM.

As to `C[C@@]1(C(F)(F)F)C[C@H](C(=O)Nc2cnc(-n3nccn3)c(C(F)(F)F)c2)c2cnc3cc(Cl)nn3c21` (single isomer, unassigned) [Example 54, N-(6-(2H-1,2,3-triazol-2-yl)-5˜(trifluoromethyl)pyridin-3-yl)-2-chloro-8-methyl-8-(trifluoromethyl)-7,8-dihydro-6H-cyclopenta[e]pyrazolo[1,5-a]pyrimidine-6-carboxamide], the IC50 was 100 to 1000 nM in experiment [1] (Homo sapiens) and less than 10 nM in experiment [2].

With `O=C(Nc1cnc(-n2nccn2)c(C(F)(F)F)c1)C1CC2(CC2)c2c1cnc1cc(Cl)nn21` (single isomer, unassigned) [Example 149, N-(6-(2H-1,2,3-triazol-2-yl)-5-(trifluoromethyl)pyridin-3-yl)-2-chloro-6,7-dihydrospiro[cyclopenta[e]pyrazolo[1,5-a]pyrimidine-8,1′-cyclopropane]-6-carboxamide], the IC50 fell in the range of 100 to 1000 nM in experiment [1] (Homo sapiens) and 10 to 100 nM in experiment [2].

With `C[C@H](O)c1cnn(-c2ncc(NC(=O)[C@H]3CC4(CCC4)c4c3cnc3cc(Cl)nn43)cc2Cl)n1` (single isomer, unassigned) [Example 158], the IC50 in experiment [1] (Homo sapiens) is 100 to 1000 nM; in experiment [2] it was 10 to 100 nM.

Turning to `CC1(C)CC(C(=O)Nc2cnc(-n3nccn3)c(Cl)c2)c2cnn3cc(Cl)nc3c21` (single isomer, unassigned) [Example 195, 2-chloro-N-(5-chloro-6-(2H-1,2,3-triazol-2-yl)pyridin-3-yl)-9,9-dimethyl-8,9-dihydro-7H-cyclopenta[d]imidazo[1,2-b]pyridazine-7-carboxamide], the IC50 in experiment [1] (Homo sapiens) is 10 to 100 nM; in experiment [2], less than 10 nM.

For the compound `CC1(C)CC(C(=O)Nc2cnc(-n3nccn3)c(Cl)c2)c2cnc3c(F)cnn3c21` (single isomer, unassigned) [Example 101, N-(5-chloro-6-(2H-1,2,3-triazol-2-yl)pyridin-3-yl)-3-fluoro-8,8-dimethyl-7,8-dihydro-6H-cyclopenta[e]pyrazolo[1,5-a]pyrimidine-6-carboxamide], the IC50 in experiment [1] (Homo sapiens) fell in the range of 100 to 1000 nM; in experiment [2] it was 10 to 100 nM.

For the compound `C[C@@]1(C(F)(F)F)C[C@H](C(=O)Nc2cnc(-n3nccn3)c(C(F)(F)F)c2)c2cnc3cc(Cl)nn3c21` (single isomer, unassigned) [Example 56, N-(6-(2H-1,2,3-triazol-2-yl)-5˜(trifluoromethyl)pyridin-3-yl)-2-chloro-8-methyl-8-(trifluoromethyl)-7,8-dihydro-6H-cyclopenta[e]pyrazolo[1,5-a]pyrimidine-6-carboxamide], the IC50 in experiment [1] is 100 to 1000 nM; in experiment [2], less than 10 nM.

As to `Cc1cc2cc(F)c3c(n2n1)C(C)(C)CC3C(=O)Nc1cnc(-n2nccn2)c(Cl)c1` (single isomer, unassigned) [Example 157, N-(5-chloro-6-(2H-1,2,3-triazol-2-yl)pyridin-3-yl)-5-fluoro-2,8,8-trimethyl-7,8-dihydro-6H-cyclopenta[e]pyrazolo[1,5-a]pyridine-6-carboxamide], the figures for the IC50 in experiment [1] (Homo sapiens) and in experiment [2] were no less than 1000 nM and 10 to 100 nM, respectively.

`CC1(C)CC(C(=O)Nc2cnc(OC(F)F)c(Cl)c2)c2cnn3cc(Cl)nc3c21` (single isomer, unassigned) [Example 191, 2-chloro-N-(5-chloro-6-(difluoromethoxy)pyridin-3-yl)-9,9-dimethyl-8,9-dihydro-7H-cyclopenta[d]imidazo[1,2-b]pyridazine-7-carboxamide]: the values for the 50% inhibitory concentration (IC50) in experiment [1] (Homo sapiens) and in experiment [2] were 100 to 1000 nM and less than 10 nM, respectively.

`CC1(C)CC(C(=O)Nc2cnc(OC(F)F)c(C#N)c2)c2cnc3c(F)c(F)nn3c21` (single isomer, unassigned) [Example 91, N-(5-cyano-6-(difluoromethoxy)pyridin-3-yl)-2,3-difluoro-8,8-dimethyl-7,8-dihydro-6H-cyclopenta[e]pyrazolo[1,5-a]pyrimidine-6-carboxamide]: the IC50 in experiment [1] (Homo sapiens) is 100 to 1000 nM; in experiment [2], 10 to 100 nM.
